For assay [1], the system named is Wnt activity (Sp5-Luc reporter, SW480 colon carcinoma cells). Put plainly: Sp5-Luc reporter gene screening assay for Wnt activity in SW480 cells. To be noted: Homo sapiens; for inhibition at 10 µM: SW480, read-out: percent inhibition at 10 μM; for EC50: Sp5-Luc reporter, SW480 cells, 36 to 48 hours. It is filed as cell-based. From the text:
The screening assay for Wnt activity is described as follows. Reporter cell lines can be generated by stably transducing cancer cell lines (e.g., colon cancer) or primary cells (e.g., IEC-6 intestinal cells) with a lentiviral construct that includes a Wnt-responsive promoter driving expression of the firefly luciferase gene.
SW480 colon carcinoma cells were transduced with a lentiviral vector expressing luciferase with a human Sp5 promoter consisting of a sequence of eight TCF/LEF binding sites. SW480 cells stably expressing the Sp5-Luc reporter gene and a hygromycin resistance gene were selected by treatment with 150 μg/mL of hygromycin for 7 days. These stably transduced SW480 cells were expanded in cell culture and used for all further screening activities. […] For Sp5-Luc reporter gene assays, the cells were plated at 4,000 cells/well in 384-well plates with a DMEM medium containing 1% fetal bovine serum, and 1% Penicillin-Streptomycin and incubated for 36 to 48 hours at 37° C. and 5% CO2. Following incubation, 15 μl of BriteLite Plus luminescence reagent (Perkin Elmer) was added to each well of the 384-well assay plates. The plates were placed on an orbital shaker for 2 min and then luminescence was quantified using the Envision (Perkin Elmer) plate reader. Readings were normalized to DMSO only treated cells, and normalized activities were utilized for EC50 calculations using the dose-response log (inhibitor) vs. response-variable slope (four parameters) nonlinear regression feature available in GraphPad Prism 5.0 (or Dotmatics).

Assay [2] has as its target recombinant DYRK1A kinase (Homo sapiens (Human), UniProt Q13627). The assay can be described thus: DYRK1A kinase assay (Ser/Thr 18 peptide Z-lyte, FRET). It is filed as biochemical. The conditions noted are these: 30 μM ATP, one hour at room temperature, read-out: EC50 (μM) (IC50 per method). The text has this: Representative compounds were screened using the assay procedure for DYRK1A kinase activity as described below.
The DYRK1A kinase assay was run using the Ser/Thr 18 peptide Z-lyte assay kit according to manufacturer's instructions (Life Technologies—a Division of Thermo-Fisher). This is a non-radioactive assay using fluorescence resonance energy transfer (FRET) between coumarin and fluorescein to detect kinase activity which is represented as a ratio of coumarin emission/fluorescein emission.
Briefly, recombinant DYRK1A kinase, ATP and Ser/Thr peptide 18 were prepared in 1× Kinase buffer to final concentrations of 0.19 μg/mL, 30 μM, and 4 μM respectively. The mixture was allowed to incubate with the representative compounds for one hour at room temperature. All reactions were performed in duplicate. Unphosphorylated (“0% Control”) and phosphorylated (“100% control”) forms of Ser/Thr 18 served as control reactions. Additionally, an 11-point dose-response curve of Staurosporine (1 uM top) was run to serve as a positive compound control.
After incubation, Development Reagent A was diluted in Development Buffer then added to the reaction and allowed to further incubate for one hour at room temperature. The plate was read at Ex 400 Em 455 to detect the coumarin signal and Ex 400 Em 520 to measure the signal (EnVision Multilabel Plate Reader, PerkinElmer).
The Emission ratio (Em) was calculated as a ratio of the coumarin (C) emission signal (at 445 nm)/Fluorescein (F) emission signal (at 520 nm). The percent phosphorylation was then calculated using the following formula: [1−((Em ratio×F100%)−C100%)/((C0%−C100%)+(Em ratio×(F100%−F0%)))].

The test system of assay [3] is primary human fibroblasts derived from IPF patients (LL29 cells). The assay can be described thus: Inhibition of TGF-β1 induced fibrosis (αSMA staining) in LL29 fibroblasts. It is filed as cell-based. To be noted: Fibroblast; for EC50: 96 h, LL29 cells, TGF-β1 20 ng/mL, 4 days, % αSMA positive cells. The protocol:
Representative compounds were screened using primary human fibroblasts (derived from IPF patients) treated with TGF-β1 to determine their ability to inhibit the fibrotic process.
LL29 cells were plated at 1,500 cells/well in 70 μL/well F12 medium supplemented with 1% Fetal Bovine Serum. […] Wells treated with TGF-β1 and containing DMSO were used as positive control, and cells with only DMSO were negative control. […] Following incubation for 4 days, SYTOX green nucleic acid stain (Life Technologies [Thermo Fisher Scientific]) was added to the wells at a final concentration of 1 μM and incubated at room temperature for 30 min.

For assay [4], the system named is primary human mesenchymal stem cells (hMSCs). The assay can be described thus: Chondrogenesis induction in hMSCs (Rhodamine B staining intensity, EC50). It is filed as cell-based. To be noted: 6 days, Rhodamine B staining intensity of nodules. From the text: Representative compounds were screened using primary human mesenchymal stem cells (hMSCs) to determine their ability to induce chondrogenesis (process by which cartilage is developed).
Primary human mesenchymal stem cells (hMSCs) were purchased from Lonza (Walkersville, Md.) and expanded in Mesenchymal Stem Cell Growth Media (Lonza). Cells between passage 2 and 4 were used for the experiments.
To image chondrogenic nodules, the cells were fixed using 4% formaldehyde (Electron Microscopy Sciences), and stained with 2 μg/mL Rhodamine B (Sigma-Aldrich) and 20 μM Nile Red (Sigma-Aldrich) [Johnson K., et. al, A Stem Cell-Based Approach to Cartilage Repair, Science, (2012), 336(6082). […] Rhodamine B staining intensity of nodules in each well was normalized to the average of 3 DMSO treated wells on the same plate using Excel (Microsoft Inc.). The normalized averages (fold change over DMSO) of 3 replicate wells for each compound concentration were calculated. EC50 values were calculated using non-linear regression curve fitting in Prism 8 (Graphpad Inc.). Due to solubility limitations of some of the compounds, curve fitting was incomplete, and the highest observed activity was extrapolated to the insoluble doses for accurate EC50 determinations.
EC50 values are reported. Further, using TGF-β3 as a positive control, the concentration of representative compounds required to induce equivalent levels of chondrogenesis is reported. In addition, the maximum activity of each compound and the respective dose that each compound reached maximum chondrogenesis activity is reported.

The structures appear in SMILES notation. Bounds are passed on as bounds.

One may read the inhibition as the drop in the measured response relative to a control, in per cent. What is called EC50 is the midpoint of the concentration-response curve. The low end stands for a more potent agent, the high end for a less potent agent. The IC50 is the concentration needed to halve the response being measured. Consider `O=C1NC2CCC(CC2)NCc2cncc(c2)-c2ccc3[nH]nc(c3c2)-c2nc3c1cccc3[nH]2` [Compound 64, (6^1s,6^4s,Z)-1^1H,2^1H-5,7-diaza-1 (2,4),2(3,5)-dibenzo[d]imidazola-3(3,5)-pyridina-6(1,4)-cyclohexanacyclooctaphan-8-one], for which the inhibition at 10 µM in assay [1] is 47.4%; in assay [3] (read-out: percent inhibition at 10 μM), 72%. The EC50 in assay [1] was above 10 µM; in assay [3], 10 µM; in assay [4] it was 0.147 µM. The IC50 in assay [2] amounted to 0.448 µM.

Consider `O=C1CCc2cccc(c2)-c2cncc(c2)NC(=O)c2n[nH]c3ccc(cc23)-c2cncc(c2)CN1` [Compound 97, 2^1H-4,10-diaza-2(5,3)-indazola-1,5(3,5)-dipyridina-6(1,3)-benzenacycloundecaphane-3,9-dione], for which, in assay [1], the inhibition at 10 µM stood at 22.2%. The EC50 is above 10 µM in assay [1], 0.406 µM in assay [3] and 0.069 µM in assay [4]. Further, the IC50 in assay [2] is 0.009 µM.

Source of the values: patent US10759799B2, “Indazole containing macrocycles and therapeutic uses thereof” (Samumed, LLC, priority 2018, dated 2020).
